Measurements from patent US5010086A, “Imidazopyridines, compositions and use” (Sterling Drug Inc., priority 1990, dated 1991).

Key:
Format in all cases: biochemical, canine
[1] = molecular target: T1, PDE III (Canis lupus familiaris, UniProt A0A8I3NYE0); test: phosphodiesterase inhibition, PDE III (peak III PDE)
T1 construct: isolated from canine aortic smooth, ventricular or tracheal smooth muscle sources; from tissue; host or cells: canine aortic smooth, ventricular or tracheal smooth muscle; DEAE-cellulose peak III
T1 sequence (A0A8I3NYE0 1-1135): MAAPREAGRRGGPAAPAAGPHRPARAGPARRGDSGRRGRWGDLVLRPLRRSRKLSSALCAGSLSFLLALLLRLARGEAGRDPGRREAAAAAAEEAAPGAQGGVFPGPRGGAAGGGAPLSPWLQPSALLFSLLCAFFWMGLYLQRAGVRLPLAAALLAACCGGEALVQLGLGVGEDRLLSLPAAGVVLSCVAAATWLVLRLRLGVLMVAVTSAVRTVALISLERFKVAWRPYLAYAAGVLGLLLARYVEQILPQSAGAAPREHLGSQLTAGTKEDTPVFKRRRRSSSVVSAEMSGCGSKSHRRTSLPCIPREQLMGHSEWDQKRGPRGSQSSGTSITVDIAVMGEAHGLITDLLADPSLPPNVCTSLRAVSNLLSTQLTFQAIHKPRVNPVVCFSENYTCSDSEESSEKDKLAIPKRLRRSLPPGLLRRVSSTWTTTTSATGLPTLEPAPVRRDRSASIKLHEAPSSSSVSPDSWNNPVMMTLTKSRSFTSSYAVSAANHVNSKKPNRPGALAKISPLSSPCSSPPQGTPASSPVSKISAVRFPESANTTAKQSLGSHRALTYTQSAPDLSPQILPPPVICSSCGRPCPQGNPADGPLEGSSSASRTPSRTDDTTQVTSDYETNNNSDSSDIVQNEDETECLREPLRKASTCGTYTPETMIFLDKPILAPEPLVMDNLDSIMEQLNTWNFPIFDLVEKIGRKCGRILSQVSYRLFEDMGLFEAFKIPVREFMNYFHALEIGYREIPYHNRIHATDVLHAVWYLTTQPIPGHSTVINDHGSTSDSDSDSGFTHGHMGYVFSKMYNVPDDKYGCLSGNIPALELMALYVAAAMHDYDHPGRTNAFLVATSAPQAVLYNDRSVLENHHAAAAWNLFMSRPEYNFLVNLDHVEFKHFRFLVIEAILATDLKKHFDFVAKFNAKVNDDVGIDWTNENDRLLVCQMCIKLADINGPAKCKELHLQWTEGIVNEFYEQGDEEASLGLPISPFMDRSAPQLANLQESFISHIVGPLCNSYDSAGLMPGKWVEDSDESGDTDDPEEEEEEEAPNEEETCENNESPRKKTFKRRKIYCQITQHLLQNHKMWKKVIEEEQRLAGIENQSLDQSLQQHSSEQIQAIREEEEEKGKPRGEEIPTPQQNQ
Description: (§1) Multiple isozymic forms of cyclic nucleotide phosphodiesterase (PDE) exist in most tissues. […] A "low Km" cGMP form of PDE (also referred to as peak I PDE) also has been identified. Increases in cAMP and cGMP will relax both vascular smooth and bronchial smooth muscle. Selective PDE isozyme inhibition represents a novel subcellular mechanism by which increses in cAMP or cGMP and subsequent vaso- or broncho-relaxation may be achieved. Moreover, a component of positive inotropy may be retained, dependent upon the isozyme or tissue source specificity of an inhibitor. Thus, development of PDE isozyme inhibitors represents novel approaches for the discovery of agents useful for treating hypertension, congestive heart failure or asthma. For example, compounds having essentially high PDE III inhibitory activity are expected to have cardiotonic and vasodilatory (antihypertensive) activity. PDE isozymes (peak I and III) are isolated from canine aortic smooth, ventricular or tracheal smooth muscle sources by DEAE - cellulose column chromatography. Inhibition of both peaks by a putative inhibitor from any of these sources is quantitated. If ≥50% inhibition is detected at 30 μM, then an IC50 value and corresponding 95% confidence limits for both peaks is determined.
(§2) The procedures for the separation of the isozymes of PDE from animal tissue and the testing of the compounds of the invention for phosphodiesterase inhibition are essentially those described by Weishaar et al., Biochem. Pharmacol. 35:787-800 (1986) and Thompson et al., Adv. Cyclic Nucleotide Res. 10:69-92. Initial screening of test compounds with both peak I and peak III PDE isozymes is done at a concentration of 10, 30 or 100 μm, and each assay is performed in triplicate for each inhibitor. The IC50 values (concentration causing 50% inhibition) are then calculated from concentration-response curves as described by Tallarida and Murray, Manual of Pharmacologic Calculations with Computer Programs, Procedure 8, Graded Dose-Response, pp. 14-19, Springer-Verlag, New York, 1981.

[2] = molecular target: PDE I; test: phosphodiesterase inhibition, PDE I (peak I PDE); settings: for IC50: peak I PDE
Description: as §1, §2

[3] = molecular target: T1, PDE III; test: phosphodiesterase inhibition, PDE III (peak III PDE); settings: read-out: Percent Inhibition PDE III
[4] = tested on: PDE I; test: phosphodiesterase inhibition, PDE I (peak I PDE)

Structure (SMILES)	IC50 [1] [nM]	IC50 [2] [µM]	further results
CCCCCCS(=O)(=O)Nc1ccc(-c2cc3[nH]c(=O)[nH]c3nc2C)cc1 [Example 13, 1,3-Dihydro-6-[4-(hexanesulfonylamino)phenyl]-5-methyl-2H-imidazo[4,5-b]pyridin-2-one]	53	5.6	–
Cc1nc2[nH]c(=O)[nH]c2cc1-c1ccc(NS(C)(=O)=O)cc1 [Example 9, 1,3-Dihydro-6-[4-(methanesulfonylamino)phenyl]-5-methyl-2H-imidazo[4,5-b]pyridin-2-one]	470	45	–
O=c1[nH]c2cc(-c3ccnc4ccccc34)c(C(F)(F)F)nc2[nH]1 [3(e), 1,3-Dihydro-6-(4-quinolinyl)-5-trifluoromethyl-2H-imidazo[4,5-b]pyridine-2-one]	–	–	Percent Inhibition PDE I ([2]; at 100 μM): 4%; inhibition at 1 µM [3]: 9%
Cc1nc2[nH]c(=O)[nH]c2cc1-c1ccc(NC(=O)C(F)(F)F)cc1 [Example 7, 1,3-Dihydro-5-methyl-6-[4-(trifluoroacetylamino)phenyl]-2H-imidazo[4,5-b]pyridin-2-one]	630	63.6	–
CCCNC(=O)Nc1ccc(-c2cc3[nH]c(=O)[nH]c3nc2C)cc1 [Example 15, 1,3-Dihydro-6-[4-(N'-propylureido)phenyl]-5-methyl-2H-imidazo[4,5-b]pyridin-2-one]	104	319	–
O=c1[nH]c2cc(-c3cc[n+]([O-])cc3)c(C(F)(F)F)nc2[nH]1 [1(f), 1,3-Dihydro-6-(4-pyridinyl)-5-trifluoromethyl-2H-imidazo[4,5-b]pyridin-2-one N-(py)-oxide]	29	–	Percent Inhibition PDE I ([4]; at 1 μM): 0%
O=c1[nH]c2cc(-c3ccncc3)c(C(F)(F)C(F)(F)F)nc2[nH]1 [2(d), 1,3-Dihydro-6-(4-pyridinyl)-5-pentafluoroethyl-2H-imidazo[4,5-b]pyridin-2-one]	1800	12	–
Cc1ccc(S(=O)(=O)Nc2ccc(-c3cc4[nH]c(=O)[nH]c4nc3C)cc2)cc1 [Example 12, 1,3-Dihydro-5-methyl-6-[4-(p-toluenesulfonylamino)phenyl]-2H-imidazo[4,5-b]pyridin-2-one]	–	–	Percent Inhibition PDE I ([4]; at 1 μM): 13%; inhibition at 1 µM [3]: 64%
CCCCS(=O)(=O)Nc1ccc(-c2cc3[nH]c(=O)[nH]c3nc2C)cc1 [Example 10, 6-[4-(Butanesulfonylamino)phenyl]-1,3-dihydro-5-methyl-2H-imidazo[4,5-b]pyridin-2-one]	94	9	–
Cc1nc2[nH]c(=O)[nH]c2cc1-c1ccc(NS(=O)(=O)c2cccc3cccnc23)cc1 [Example 14, 1,3-Dihydro-6-[4-(8-quinolinylsulfonylamino)phenyl]-5-methyl-2H-imidazo[4,5-b]pyridin-2-one]	55	1.6	–
Cc1nc2[nH]c(=O)[nH]c2cc1-c1ccc(N)cc1 [Example 6, 6-(4-Aminophenyl)-1,3-dihydro-5-methyl-2H-imidazo[4,5-b]pyridin-2-one]	500	45	–
Cc1nc2[nH]c(=O)[nH]c2cc1-c1ccccc1 [4(c), 1,3-Dihydro-5-methyl-6-phenyl-2H-imidazo[4,5-b]pyridin-2-one]	270	–	Percent Inhibition PDE I ([4]; at 1000 μM): 38%
Cc1nc2[nH]c(=O)[nH]c2cc1-c1ccc([N+](=O)[O-])cc1 [Example 5, 1,3-Dihydro-5-methyl-6-(4-nitrophenyl)-2H-imidazo[4,5-b]pyridin-2-one]	9	–	Percent Inhibition PDE I ([4]; at 300 μM): 35%
O=c1[nH]c2cc(-c3ccncc3)c(C(F)(F)F)nc2[nH]1 [1(e), 1,3-Dihydro-6-(4-pyridinyl)-5-trifluoromethyl-2H-imidazo[4,5-b]pyridin-2-one]	23	52.9	–
CCCCC(=O)Nc1ccc(-c2cc3[nH]c(=O)[nH]c3nc2C)cc1 [Example 11, 6-[4-(Butanecarbonylamino)phenyl]-1,3-dihydro-5-methyl-2H-imidazo[4,5-b]pyridin-2-one]	–	–	Percent Inhibition PDE I ([4]; at 1 μM): 0%; inhibition at 1 µM [3]: 37%
CC(=O)Nc1ccc(-c2cc3[nH]c(=O)[nH]c3nc2C)cc1 [Example 8, 6-[4-(Acetylamino)phenyl]-1,3-dihydro-5-methyl-2H-imidazo[4,5-b]pyridin-2-one]	620	–	Percent Inhibition PDE I ([2]; at 30 μM): 22%
